Source: US11197862B2, “Methods of preventing toxicity of platinum drugs” (XOMICS BIOPHARMA, INC., priority 2015, dated 2021)
Where two headings read alike, the source gives them in different places.

What was measured:
OCT2 [1] = molecular target: T1, OCT2 (Homo sapiens, UniProt O15244); experiment: Inhibition of OCT2-mediated oxaliplatin uptake in transfected MDCK-II cells (protein-free HBSS); conditions: for inhibition at 30 min, 5 μM / inhibition at 30 min, 50 μM / potency estimated from few doses at 30 min: human
T1 sequence (O15244 1-555): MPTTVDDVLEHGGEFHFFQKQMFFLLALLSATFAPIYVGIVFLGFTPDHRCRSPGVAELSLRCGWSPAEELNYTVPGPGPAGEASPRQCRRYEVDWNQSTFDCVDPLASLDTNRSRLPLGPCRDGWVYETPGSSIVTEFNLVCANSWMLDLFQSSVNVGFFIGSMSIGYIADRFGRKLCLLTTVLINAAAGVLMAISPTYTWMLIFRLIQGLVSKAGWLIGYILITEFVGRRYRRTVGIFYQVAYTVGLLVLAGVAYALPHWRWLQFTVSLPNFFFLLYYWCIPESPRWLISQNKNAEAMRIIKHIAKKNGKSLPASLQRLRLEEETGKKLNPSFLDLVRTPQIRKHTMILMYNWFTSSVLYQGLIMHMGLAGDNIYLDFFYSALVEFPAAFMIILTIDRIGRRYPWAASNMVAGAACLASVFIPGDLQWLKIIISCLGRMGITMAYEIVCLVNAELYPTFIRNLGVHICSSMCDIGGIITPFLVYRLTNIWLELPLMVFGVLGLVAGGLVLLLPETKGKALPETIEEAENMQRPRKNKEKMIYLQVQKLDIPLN
Text: Fully confluent MDCK cell monolayers were transfected with either cDNA plasmids encoding the human transporter to be tested or a GFP control. […] The cells were then washed with ice-cold PBS and lysed with 50:50 acetonitrile:H2O. Intracellular content of the substrate was quantified by LC/MS/MS or a MicroBeta radiometric plate reader.

OCT2 [2] = molecular target: T1, OCT2; conditions: OCT2-mediated uptake; ASP+ 5 μM in HBSS; from Kido Y et al. J Med Chem 2011; cited from earlier work
OCT2 [3] = molecular target: T1, OCT2; experiment: Inhibition of OCT2-mediated ASP+ uptake (Kido et al., Giacomini group)
[4] = cited from earlier work; for Plasma protein binding (%): published data; for Cmax: read-out: Plasma peak total concentration Cmax, published clinical pharmacokinetic data
[5] = Published clinical pharmacokinetic data; conditions: from published Cmax and protein binding
OCT2 [6] = molecular target: T1, OCT2; experiment: Inhibition of OCT2-mediated metformin uptake in transfected MDCK-II cells; conditions: for inhibition at 5 min, 5 μM / inhibition at 5 min, 50 μM: human
OCT2 [7] = molecular target: T1, OCT2; experiment: in vitro
[8] = human, in vivo
[9] = clinical dose; cited from earlier work
OCT2 [10] = molecular target: T1, OCT2; experiment: Inhibition of OCT2-mediated oxaliplatin transport in 100% human serum or HBSS containing 4% BSA (IC50,app)
[11] = human, cell line expressing human OCT2 (cell line not given), probe ASP+ 5 μM
[12] = MDCK-II cells transfected with human OCT2, probe oxaliplatin 10 μM
[13] = IC50 (μM) (substrate Oxaliplatin)

Compound	inhibition at 30 min, 5 μM (OCT2 [1]) [%]	inhibition at 30 min, 50 μM (OCT2 [1]) [%]	potency estimated from few doses at 30 min (OCT2 [1]) [µM]	Inhibition % @ 20 μM (substrate ASP+) (OCT2 [2]) [%]	potency estimated from few doses (OCT2 [3]; [11]) [µM]	IC50 (OCT2 [1]) [nM]	Plasma protein binding (%) [4] [%]	Cmax [4] [nM]	Plasma peak unbound concentration Cmax,u [5] [nM]	IC50 (OCT2 [6]) [µM]	inhibition at 5 min, 5 μM (OCT2 [7]) [%]	inhibition at 5 min, 50 μM (OCT2 [7]) [%]	potency estimated from few doses at 30 min (OCT2 [1]; [13]) [µM]	also measured
OCC(O)COc1ccc(Cl)cc1 (stereo not shown) [Chlorphenesin]	14	30	118	96	0.86	–	–	–	–	–	–	–	–	–
NC1=NCC2c3ccccc3Cc3ccccc3N12 (stereo not shown) [Epinastine]	96	100	0.19	97	0.58	190	64.2	120	40	3.9	–	–	–	inhibition at 5 min, 5 μM (OCT2 [6]): 56%; inhibition at 5 min, 50 μM (OCT2 [6]): 92%
C=C1C[C@@H]2[C@H](CC[C@]3(C)C(=O)CC[C@@H]23)[C@@]2(C)C=CC(=O)C=C12 [Exemestane]	–	–	–	100	< 0.1	190	90	91	10	2.6	66	94	–	inhibition at 30 min, 5 μM (OCT2 [1]; [12]): 96%; inhibition at 30 min, 50 μM (OCT2 [1]; [12]): 102%; potency estimated from few doses at 30 min (OCT2 [1]; [12]): 0.19 µM
Cc1ccc(NC(=O)c2ccc(CN3CCN(C)CC3)cc2)cc1Nc1nccc(-c2cccnc2)n1 [Imatinib]	57	95	–	103	< 0.1	–	–	–	–	–	–	–	3.7	fold less potent as inhibitor of OCT2-mediated metformin and oxaliplatin uptake than of ASP+ uptake (OCT2 [1]; comparison of Table 1 potencies): > 30 fold
CC(C)[N+]1(C)[C@@H]2CC[C@H]1CC(OC(=O)C(CO)c1ccccc1)C2.[Br-] (stereo partly shown) [Ipratropium•Br]	–	–	–	96	–	–	–	–	–	–	–	–	–	Inhibition % @ 5 μM (substrate Oxaliplatin) (OCT2 [1]; OCT2-mediated uptake, oxaliplatin 10 μM in HBSS, 30 min, inhibitor 5 μM): 107%; Inhibition % @ 50 μM (substrate Oxaliplatin) (OCT2 [1]; OCT2-mediated uptake, oxaliplatin 10 μM in HBSS, 30 min, inhibitor 50 μM): 104%; potency estimated from few doses (OCT2 [1]; read-out: IC50 (μM) (substrate Oxaliplatin), OCT2-mediated uptake, oxaliplatin 10 μM in protein-free HBSS, estimated from single concentration or nonlinear regression): < 0.1 µM; IC50 (OCT2 [1]; read-out: IC50 or Ki, intrinsic inhibition constant in protein free HBSS, OCT2-mediated oxaliplatin uptake): < 100 nM; potency estimated from few doses (OCT2 [3]; read-out: IC50 (μM) (substrate ASP+), estimated from the inhibition at the single concentration 20 μM): 0.81 µM; Inhibition % @ 5 μM (substrate Metformin) (OCT2 [6]; OCT2-mediated uptake, metformin 10 μM in HBSS, 5 min, inhibitor 5 μM): 94%; Inhibition % @ 50 μM (substrate Metformin) (OCT2 [6]; OCT2-mediated uptake, metformin 10 μM in HBSS, 5 min, inhibitor 50 μM): 97%; IC50 (OCT2 [6]; read-out: IC50 (μM) (substrate Metformin), OCT2-mediated uptake, metformin 10 μM in HBSS, estimated from 50 μM or regression of seven concentrations (±SEM)): 0.32 µM
N=C(N)c1ccc(OCCCCCOc2ccc(C(=N)N)cc2)cc1 [Pentamidine]	99	99	–	102	< 0.1	67	69	730	–	2.5	67	91	0.07	Plasma peak unbound concentration Cmax,u [8]: 230 nM; patients with nephrotoxicity at a clinical dose [9]: ~25%
CC(C)[N+](C)(CCOC(=O)C1c2ccccc2Oc2ccccc21)C(C)C [Propantheline•Br]	–	–	–	107	< 0.1	< 100	–	134	–	1.7	75	96	< 0.1	inhibition at 30 min, 5 μM (OCT2 [1]; [12]): 103%; inhibition at 30 min, 50 μM (OCT2 [1]; [12]): 102%; IC50 (OCT2 [10]; IC50,app (μM), apparent inhibition constant in 100% human serum or HBSS containing 4% BSA, OCT2-mediated oxaliplatin uptake): 0.24 µM
C[N+]1(C)[C@@H]2C[C@@H](OC(=O)C(O)(c3cccs3)c3cccs3)C[C@H]1[C@@H]1O[C@@H]12 [Tiotropium•Br]	98	102	0.12	–	–	120	72	34	10	1.5	–	–	–	inhibition at 5 min, 5 μM (OCT2 [6]): 77%; inhibition at 5 min, 50 μM (OCT2 [6]): 95%; IC50 (OCT2 [10]): 1.1 µM
